The text below walks through data of patent EP0284180A1, “Prostaglandins E and anti ulcers containing same” (Kabushiki Kaisha Ueno Seiyaku Oyo Kenkyujo, priority 1987, dated 1988).

Assay [1] concerns confinement-stress induced ulcers through immersion in water. Description: Confinement-stress induced ulcers through immersion in water (hydrorestraint stress ulcer preventing effect). In kind it is in vivo, male rats of the Crj : Wistar strain. Conditions: for ED50: Rattus norvegicus, po, hydrorestraint stress-ulcer preventing effect, procedure of Test Example 1 (Table 3), read-out: Ulcer inhibiting effect ED50. The protocol:
As test samples, we used the PGE as obtained in Examples 2 to 52 as described herein, 13,14-dihydro-15-keto-PGE2 (produced by Funakoshi & Co.) being employed as a control reference.
Each group of test animals used consisted of 8 to 10 male rats of the Crj : Wistar strain, weighing 180 to 230 g. Test animals were fasted for 24 hours before the oral administration of the test samples; in the case of development of confinement-stress induced ulcers through immersion in water, 10 minutes after oral administration of the test specimens, the aminals were confined in a stress cage developed by Univ. of Tokyo, then immersed up to the ensiform process of sternum in water at 23°C for 4 hours and sacrificed; in the case of formation of indomethacin-induced ulcers, shortly after the materials were given, animals were given indomethacin orally at a dose of 10 mg/kg and sacrificed after 5 hours.
The stomacks were taken out, followed by fixation with 1 % formalin, and incised along the greater curvature to carry out investigation under an illuminated magnifier for ulceration. The degree and extent of lesion and ulcer were rated based on the ulceration index being classified into the following five numerical categories: • 0: normal, with no lesion detected; • 1: bleeding or erosion of mucosa; • 2: development of less than 5 small ulcers (not greater than 2 mm in diameter); • 3: generation of not less than 5 small ulcers or a large ulcer (not less than 2 mm in diameter); • 4: generation of not less than 2 large ulcers.
On the basis of the criteria that the rats with the ulceration index of not less than "2", the ulcer inhibition rate (EDso) was calculated from ulcer-generation ratio in the control and the ratio of the test specimens.

Another assay concerns ileum. Description: Intestinal constriction effect, isolated ileum in Magnus tube. Also on record: species or system male Wister rat. The conditions noted are these: rat ileum, constriction relative to acetylcholine, ED50 class. The protocol: A male Wister rat (of 250 - 300g in weight) was struck to death, and immediately its carotid artery was cut to dehematize. An ileum portion located about 10 cm from the cecum was extracted, and after its contents were washed away with a Tyrode liquid, a 1.5 - 2 cm long part of it was cut off and hung in a Magnus tube.
The constriction of the ileum was brought to rest for 15 - 20 minutes until the ileum was allowed to be stabilized, and subsequently the ileum was constricted with […]/mt of acetylcholine. After constructions of same magnitude were had two times, the material to be tested was cumulatively administered at one- minute intervals.
Constrictions with the material tested were expressed in terms of ratios, based on constriction per 10 g/m t of acetylcholine, and values for ED50 were determined. + : EDso < 10^-6 M ±: 10^-4 M ≦ ED50 ≦ 10^-6 M -: 10^-4 M < ED50

In another assay the test system is trachea. As to the kind of experiment: Tracheal relaxation, isolated tracheal rings constricted with histamine. Also on record: species or system male gunea pig. The conditions noted are these: guinea pig trachea, inhibition of constriction under histamine 5.4 x 10^-4 M, IC50 class; read-out: Tracheal relaxation effect. The method, then: A male gunea pig (of about 300 g in weight) was struck to death, and its artery was cut to dehematize. Its trachea, after having been extracted, was cut open lengthwise on the opposite side to the trachea smooth muscle, and seven tracheal rings were connected by string in a chain-like pattern, same being hung in a Magnus tube.
Trachea was brought to rest for 60 - 90 minutes and until tracheal equilibrium was reached. Thereafter, 5.4 x 10 ^-4 M of histamine was administered in such manner that it was cumulatively administered at 6 minutes' intervals after a constriction peak was reached. Tracheal relaxation with the material tested was expressed in terms of ratio of constrictional inhibition under histamine administering, and values for IC50 were determined. + : IC50 < 10^-7 M ± : 10^-5 M ≦ IC50 ≦ 10^-7 M -: 10^-5 M < IC50

The next assay relates to uterus. As to the kind of experiment: Uterine constriction, isolated uterus in Magnus tube. Also on record: species or system female rat. Conditions: rat uterus, constriction relative to 1 mU oxytocin = 100, EC50 class; read-out: Uterus constriction effect. The method, then:
A female rat (of 150g in weight) was dehematized to death, and its uterus was taken out, which was cut to a length of 1.5 - 2.5 cm. The cut uterus was hung in a magnus tube. The uterus was constricted several times with 1 mU Oxytocin. After stable uterine movement was obtained, the material to be tested was independently administered. Constrictions with the material were expressed in terms of ratios based on constriction of 1 mU of oxytocin = 100, and values of EC50 were determined on the following standards. +:EC50 < 10^-7 M ±:10^-5 M ≦ EC50 ≦ 10^-7 M -: 10^-5 M < ECso

`CCCCC[C@H](O)/C=C/[C@H]1[C@H](O)CC(=O)[C@@H]1C/C=C\CCCC(=O)OCC` [B]: the ED50 in assay [1] amounted to 0.4 mg/kg. The EC50 was less than 1 µM in the assay on ileum and 0.1 to 10 µM in the assay with uterus. Besides, the IC50 in the assay on trachea was less than 0.1 µM.
`CCCCCC(=O)CC[C@H]1[C@H](O)CC(=O)[C@@H]1C/C=C\CCCC(=O)OCC` [Material (3), 13, 14-dihydro-15-keto-PGE2 ethyl ester]: the ED50 in assay [1] amounted to 1.5 mg/kg. Moreover, the ulcer inhibiting effect result in assay [1] (conclusion in words from Table 3) is on record as “a high degree of ulcer inhibiting effect”. Further, the EC50 in the assay on ileum is more than 100 µM; with uterus, more than 10 µM. Moreover, in the assay with trachea, the IC50 is more than 10 µM.
